US10219516B2, “Molecules having pesticidal utility, and intermediates, compositions, and processes, related thereto” (priority 2015, dated 2019)
Like-named read-outs stand apart in the source and are kept apart here.

Legend:
Format in all cases: in vivo
[1] = tested on: Beet Armyworm (Spodoptera exigua, LAPHEG); assay: Bioassay on Beet Armyworm (BAW), 128-well diet tray assay
Outline: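 In a 128-well format, eight wells per compound received a surface dose of 50 μg/cm^2 on artificial diet. After drying, each well got one to five second instar larvae, held at 25° C. with 14:10 photoperiod. Mortality percentages after five to seven days were averaged.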

[2] = tested on: Cabbage Looper (Trichoplusia ni, TRIPNI); assay: Bioassay on Cabbage Looper (CL), 128-well diet tray assay; details: Trichoplusia ni
Outline: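 Mortality of second instar larvae exposed to diet coated with 50 μg/cm^2 compound (acetone-water 90:10 vehicle, dried); 25° C., 5–7 days.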

[3] = tested on: Yellow Fever Mosquito (Aedes aegypti, AEDSAE); assay: Bioassay on Yellow Fever Mosquito (YFM), 96-well plate larval assay; details: for YFM (Biological Results, rating): Species YFM (Yellow Fever Mosquito); for YFM rating: Yellow Fever Mosquito, 96-well plate larval assay
Outline: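 Each well was scored for mortality after 3 days at room temperature under a non-evaporative lid. Test molecules came from DMSO masters (4000 ppm stock) diluted with water/acetone 90:10 and dispensed into six replicate plates, which were then infested with roughly 1-day-old larvae in liver-powder water.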

[4] = Species BAW (Beet Armyworm), read-out: BAW (Biological Results, rating)
[5] = Species CL (Cabbage Looper), read-out: CL (Biological Results, rating)
[6] = Beet Armyworm, 128-well diet tray assay, read-out: BAW rating
[7] = Cabbage Looper, 128-well diet tray assay, read-out: CL rating

Row | SMILES | pest or weed control at 50 µg/cm2 [1, 4] | pest or weed control at 50 µg/cm2 [2, 5] | YFM (Biological Results, rating) [3] | pest or weed control at 50 µg/cm2 [1, 6] | pest or weed control at 50 µg/cm2 [2, 7] | YFM rating [3]
1 | N#Cc1cc(Cl)cc([C@H]2[C@H](C(=O)Nc3ccc(Cl)c(C(=O)Nc4ccc(F)cc4C#N)c3)C2(Cl)Cl)c1 (relative stereo) [F343, trans-2-Chloro-N-(2-cyano-4-fluorophenyl)-5-(2,2-dichloro-3-(3-chloro-5-cyanophenyl)cyclopropane-1-carboxamido)benzamide] | 50 to 100% | 50 to 100% | A (80-100) | – | – | –
2 | N#Cc1cc(Cl)cc([C@H]2[C@H](C(=O)Nc3ccc(Cl)c(C(=O)Nc4ccc(F)c(N)c4F)c3)C2(Cl)Cl)c1 (relative stereo) [F344, trans-N-(3-Amino-2,4-difluorophenyl)-2-chloro-5-(2,2-dichloro-3-(3-chloro-5-cyanophenyl)cyclopropane-1-carboxamido)benzamide] | 50 to 100% | 50 to 100% | A (80-100) | – | – | –
3 | Nc1c(F)cnc(NC(=O)c2cc(NC(=O)[C@H]3[C@H](c4cc(Cl)cc(Cl)c4)C3(Cl)Cl)ccc2Cl)c1F (relative stereo) [F345, trans-N-(4-Amino-3,5-difluoropyridin-2-yl)-2-chloro-5-(2,2-dichloro-3-(3,5-dichlorophenyl)cyclopropane-1-carboxamido)benzamide] | 50 to 100% | 50 to 100% | A (80-100) | – | – | –
4 | O=C(Nc1ccc(F)cc1F)c1cc(NC(=O)[C@H]2[C@H](c3ccc(F)c(F)c3)C2(Cl)Cl)ccc1Cl (relative stereo) [F346, 2-Chloro-5-(trans)-(2,2-dichloro-3-(3,4-difluorophenyl)cyclopropane-1-carboxamido)-N-(2,4-difluorophenyl)benzamide] | 50 to 100% | 50 to 100% | A (80-100) | – | – | –
5 | O=C(Nc1ccc(F)cc1F)c1cc(NC(=O)[C@H]2[C@H](c3ccc(C(F)(F)F)c(F)c3)C2(Cl)Cl)ccc1Cl (relative stereo) [F347, 2-Chloro-5-(trans)-(2,2-dichloro-3-(3-fluoro-4-(trifluoromethyl)phenyl)cyclopropane-1-carboxamido)-N-(2,4-difluorophenyl)benzamide] | 50 to 100% | 50 to 100% | A (80-100) | – | – | –
6 | O=C(Nc1ccc(F)cc1[N+](=O)[O-])c1cc(NC(=O)[C@H]2[C@H](c3cc(Cl)cc(Cl)c3)C2(Cl)Cl)ccc1Cl (relative stereo) [F348, trans-2-Chloro-5-(2,2-dichloro-3-(3,5-dichlorophenyl)cyclopropane-1-carboxamido)-N-(4-fluoro-2-nitrophenyl)benzamide] | 50 to 100% | 50 to 100% | A (80-100) | – | – | –
7 | C=Cc1cc([C@H]2[C@H](C(=O)Nc3ccc(Cl)c(C(=O)Nc4ccc(F)cc4)c3)C2(Cl)Cl)ccc1Cl (relative stereo) [F349, 2-Chloro-5-(trans-2,2-dichloro-3-(4-chloro-3-vinylphenyl)cyclopropane-1-carboxamido)-N-(4-fluorophenyl)benzamide] | 50 to 100% | 50 to 100% | A (80-100) | – | – | –
8 | C=Cc1cc(Cl)cc([C@H]2[C@H](C(=O)Nc3ccc(Cl)c(C(=O)Nc4ccc(F)cc4)c3)C2(Cl)Cl)c1 (relative stereo) [F350, 2-Chloro-5-(trans-2,2-dichloro-3-(3-chloro-5-vinylphenyl)cyclopropane-1-carboxamido)-N-(4-fluorophenyl)benzamide] | 50 to 100% | 50 to 100% | A (80-100) | – | – | –
9 | C=Cc1cc([C@H]2[C@H](C(=O)Nc3ccc(Cl)c(C(=O)Nc4ccc(F)cc4F)c3)C2(Cl)Cl)ccc1Cl (relative stereo) [F351, 2-Chloro-5-(trans-2,2-dichloro-3-(4-chloro-3-vinylphenyl)cyclopropane-1-carboxamido)-N-(2,4-difluorophenyl)benzamide] | 50 to 100% | 50 to 100% | A (80-100) | – | – | –
10 | C=Cc1cc(Cl)cc([C@H]2[C@H](C(=O)Nc3ccc(Cl)c(C(=O)Nc4ccc(F)cc4F)c3)C2(Cl)Cl)c1 (relative stereo) [F352, 2-Chloro-5-(trans-2,2-dichloro-3-(3-chloro-5-vinylphenyl)cyclopropane-1-carboxamido)-N-(2,4-difluorophenyl)benzamide] | 50 to 100% | 50 to 100% | A (80-100) | – | – | –
11 | C=Cc1ccc([C@H]2[C@H](C(=O)Nc3ccc(Cl)c(C(=O)Nc4ccc(F)c(N)c4F)c3)C2(Cl)Cl)cc1Cl (relative stereo) [F355, N-(3-Amino-2,4-difluorophenyl)-2-chloro-5-(trans-2,2-dichloro-3-(3-chloro-4-vinylphenyl)cyclopropane-1-carboxamido)benzamide] | 50 to 100% | 50 to 100% | A (80-100) | – | – | –
12 | C=Cc1cc(Cl)cc([C@H]2[C@H](C(=O)Nc3ccc(Cl)c(C(=O)Nc4ccc(F)c(N)c4F)c3)C2(Cl)Cl)c1 (relative stereo) [F356, N-(3-Amino-2,4-difluorophenyl)-2-chloro-5-(trans-2,2-dichloro-3-(3-chloro-5-vinylphenyl)cyclopropane-1-carboxamido)benzamide] | 50 to 100% | 50 to 100% | A (80-100) | – | – | –
13 | O=C(Nc1ccc(Br)c(F)n1)c1cc(NC(=O)[C@H]2[C@H](c3cc(Cl)cc(Cl)c3)C2(Cl)Cl)ccc1Cl (relative stereo) [F357, N-(5-Bromo-6-fluoropyridin-2-yl)-2-chloro-5-(trans-2,2-dichloro-3-(3,5-dichlorophenyl)cyclopropane-1-carboxamido)benzamide] | 50 to 100% | 50 to 100% | A (80-100) | – | – | –
14 | Nc1cc(F)ccc1NC(=O)c1cc(NC(=O)[C@H]2[C@H](c3cc(Cl)cc(Cl)c3)C2(Cl)Cl)ccc1Cl (relative stereo) [F361, trans-N-(2-amino-4-fluorophenyl)-2-chloro-5-(2,2-dichloro-3-(3,5-dichlorophenyl)cyclopropane-1-carboxamido)benzamide] | 50 to 100% | 50 to 100% | A (80-100) | – | – | –
15 | O=C(Nc1ccc(F)cc1F)c1cc(NC(=O)[C@H]2[C@H](c3ccc(Br)c(F)c3)C2(Cl)Cl)ccc1Cl (relative stereo) [F364, 5-(trans)-(3-(4-Bromo-3-fluorophenyl)-2,2-dichlorocyclopropane-1-carboxamido)-2-chloro-N-(2,4-difluorophenyl)benzamide] | 50 to 100% | 50 to 100% | A (80-100) | – | – | –
16 | O=C(Nc1ccc(F)cc1F)c1cc(NC(=O)[C@H]2[C@H](c3ccc(C(F)(F)F)c(Br)c3)C2(Cl)Cl)ccc1Cl (relative stereo) [F365, 5-(trans)-(3-(3-Bromo-4-(trifluoromethyl)phenyl)-2,2-dichlorocyclopropane-1-carboxamido)-2-chloro-N-(2,4-difluorophenyl)benzamide] | 50 to 100% | 50 to 100% | A (80-100) | – | – | –
17 | O=C(Nc1ccc(F)cc1F)c1cc(NC(=O)[C@H]2[C@H](c3ccc(Br)c(C(F)(F)F)c3)C2(Cl)Cl)ccc1Cl (relative stereo) [F366, 5-(trans)-(3-(4-Bromo-3-(trifluoromethyl)phenyl)-2,2-dichlorocyclopropane-1-carboxamido)-2-chloro-N-(2,4-difluorophenyl)benzamide] | 50 to 100% | 50 to 100% | A (80-100) | – | – | –
18 | O=C(Nc1ccc(F)cc1F)c1cc(NC(=O)[C@H]2[C@H](c3ccc(C(F)(F)F)c(Cl)c3)C2(Cl)Cl)ccc1Cl (relative stereo) [F367, 2-Chloro-5-(trans)-(2,2-dichloro-3-(3-chloro-4-(trifluoromethyl)phenyl)cyclopropane-1-carboxamido)-N-(2,4-difluorophenyl)benzamide] | 50 to 100% | 50 to 100% | A (80-100) | – | – | –
19 | O=C(Nc1ccc(F)cc1F)c1cc(NC(=O)[C@H]2[C@H](c3ccc(Cl)c(C(F)(F)F)c3)C2(Cl)Cl)ccc1Cl (relative stereo) [F374, 2-Chloro-5-(trans)-(2,2-dichloro-3-(4-chloro-3-(trifluoromethyl)phenyl)cyclopropane-1-carboxamido)-N-(2,4-difluorophenyl)benzamide] | – | – | – | 50 to 100% | 50 to 100% | A (80-100)
20 | O=C(Nc1ccc(F)cc1F)c1cc(NC(=O)[C@H]2[C@H](c3ccc(F)c(Br)c3)C2(Cl)Cl)ccc1Cl (relative stereo) [F375, 5-(trans)-(3-(3-Bromo-4-fluorophenyl)-2,2-dichlorocyclopropane-1-carboxamido)-2-chloro-N-(2,4-difluorophenyl)benzamide] | – | – | – | 50 to 100% | 50 to 100% | A (80-100)
